The results in this text go back to PubChem BioAssay AID2305 (GlaxoSmithKline (GSK), 2010).

Structures are written as SMILES.

In this assay the test system is P. falciparum 3D7 growth, pLDH absorbance. As to the kind of experiment: blood-stage malaria parasite growth potency – strain 3D7, dose response (AID 2305).
In the case of `O=C(NC1CCC(N2CCC(Cc3ccc(F)cc3)CC2)CC1)c1cc2ccccc2[nH]1` (configuration not stated), the IC50 was 870 nM.
Then `O=C(c1ccc(Cl)cc1)C1CCN(CCCOc2ccc3c(c2)CCNCC3)CC1`, with 1150 nM; and `Cc1ccc2nc3sc(C(=O)NCCCN4CCC(N5CCCCC5)CC4)cc3cc2c1`, with 670 nM; and `NC(N)=NN=CC(=O)Nc1ccc(Br)cc1`, with 880 nM.
On to `CC(C)OC(=O)c1cccnc1SCC(=O)Nc1ccc(C(F)(F)F)cc1Cl`, for which the concentration for half-maximal inhibition (IC50) came to 400 nM.
Molecule `COc1cc(C2NCC3(CCOCC3)c3cc4c(cc32)OCCO4)cc(OC)c1OC` (configuration not stated) displayed an IC50 of 170 nM.
Then `Cc1ccc(-c2ccc(Cl)cc2Oc2cnc(N)nc2N)o1`, with 1080 nM.
Then `Cc1cccc2[nH]c(-c3cccc(-c4ccc(NC(=O)NC(C)C)cc4)c3)nc12`, with 750 nM; and `COc1cc(Cc2cnc(N)nc2N)cc(OCCn2ccccc2=O)c1OC`, with 770 nM.
On to `CN1CCCN(Cc2cccc(-c3ccc(NC(=O)c4cccc(C#N)c4)cc3)c2)CC1`, for which the IC50 came out at 720 nM.
Then `O=C(Nc1ccc(Cl)c(C(F)(F)F)c1)N[C@H]1CCN(CCCCCNC(=O)[C@@H]2C[C@H]2c2ccc(Cl)c(Cl)c2)C1`, with 1080 nM; and `CCOC(=O)c1ccc(NC(=O)Nc2ccc(-c3cccc(-c4nc5c(C)cccc5[nH]4)c3)cc2)cc1`, with 140 nM.
Then `Cc1cc(N[C@@H](C)C(=O)Nc2ccccc2)nc(NCCc2ccc(F)cc2)n1`, with 1110 nM; and `Cc1ccc(NC(=O)c2ccc(NCCCN3CC(C)CC(C)C3)c([N+](=O)[O-])c2)cc1F` (configuration not stated), with 710 nM; and `c1ccc2c(NCCCCCCCCNc3ccnc4ccccc34)ccnc2c1`, with 160 nM.
`O=C(NCc1cccc2ccccc12)c1ccc(CNC2CCN(Cc3ccccc3)CC2)cc1` registered an IC50 of 840 nM.
In the case of `CC1(CCN2CCC(c3c[nH]c4cnccc34)CC2)CCCc2c(Br)cccc2C1=O` (configuration not stated) it was 200 nM; in that of `CCn1c(-c2nonc2N)nc2c(-c3cccc(NC(=O)Nc4ccc(Cl)cc4)c3)ncc(OCCCN)c21`, 830 nM.
As to `CCCCCCc1cc(Oc2c(I)cc(C[C@H](N)C(=O)O)cc2I)ccc1O`, the IC50 worked out at 910 nM.
Regarding `FC(F)(F)c1cccc(CNCCCCCNCc2ccc(Cl)cc2)c1`, the IC50 was 1030 nM.
Molecule `COc1cc(-c2cc3cc(Cl)c(Cl)cc3[nH]2)ccc1C(=O)NCCC1CCCN1C` (configuration not stated) returned an IC50 of 970 nM.
As to `CCNC(=O)N1CCc2ccc(Oc3nc(NCc4ccccc4OC)ncc3C)cc2CC1`, the IC50 stood at 1070 nM.
In the case of `CN1CCN(Cc2cccc(-c3cc4nccc(Nc5ccc(Oc6ccccc6)cc5)c4cc3Cl)c2)CC1` it was 730 nM.
On to `CN(C)c1ccc(OCCCCCCOc2ccccc2)cc1`, for which the IC50 turned out to be 500 nM.
As for `Cc1cc2nc(NC3=NC4(c5ccccn5)N=C(Nc5nc6cc(C)c(C)cc6[nH]5)NC4(c4ccccn4)N3)[nH]c2cc1C` (configuration not stated), the 50% inhibitory concentration (IC50) was 680 nM.
The molecule `O=C(NC1CCC(CN2CCC(c3c[nH]c4ccccc34)CC2)CC1)c1[nH]c(=O)[nH]c(=O)c1F` (configuration not stated) registered an IC50 of 800 nM.
In the case of `CC(C)COc1ccc(Cl)cc1Cc1ccc(-c2nc3ccc(CCN4CCCC4)cc3[nH]2)o1` it was 730 nM; in that of `CCc1ccc(S(=O)(=O)Nc2ccc(CCN3CCC(N4CCCCC4)CC3)cc2)cc1`, 990 nM; in that of `O=C(CCc1cnc[nH]1)Nc1cccc(-c2cccc(-c3nc4ccccc4[nH]3)c2)c1`, 660 nM.
The molecule `CC(=O)C1(c2ccccc2)CCN(CCC2(c3ccc(Cl)c(Cl)c3)CN(C(=O)c3cccc(Cl)c3)CCO2)CC1` (configuration not stated) yielded an IC50 of 850 nM.
In turn, `Cc1noc(C)c1-c1cccc(CNCc2cccc(-c3cccc(-c4nc5ccc(F)cc5[nH]4)c3)c2)c1` displayed an IC50 of 180 nM.
In the case of `O=C(Nc1ccc(Cn2ncc(N3CCCNCC3)c(Cl)c2=O)cc1)Nc1cccc(C(F)(F)F)c1` it was 640 nM; in that of `NC1CCN(Cc2ccc(-c3cccc(-c4nc5ccc(F)cc5[nH]4)c3)cc2)C1` (configuration not stated), 760 nM; in that of `CC(=O)Nc1ccc(CN2CCC(NC(=O)c3cc(-c4ccc(N(C)C)cc4)cs3)C2)cc1` (configuration not stated), 1170 nM.
In the case of `COc1ccc(N2CCN(C(CNC(=O)C3CCCCC3)c3ccc4c(c3)OCO4)CC2)cc1` (configuration not stated) it was 570 nM.
On to `O=C(NCCN1CCOCC1)c1csc(C2CCCN(C(=O)c3ccc(O)c(-c4cc(Cl)cc(Cl)c4)c3)C2)n1` (configuration not stated), for which the IC50 came to 1030 nM.
Then `O=C(NCCNc1ccnc(Nc2ccc(F)cc2)n1)c1cc2ccccc2s1`, with 750 nM.
In the case of `Nc1ncc(-c2ccccc2)cc1/C=C/c1cccnc1` it was 1120 nM.
As to `N#Cc1cccc(NC(=O)c2cccc(S(=O)(=O)NC3CCN(CC4CCCCC4)C3)c2)c1` (configuration not stated), the IC50 was found to be 580 nM.
In the case of `Cc1ccc(NC(=O)Nc2ccc(Cl)cc2)cc1-c1ccc(C(=O)Nc2ccncc2)cc1` it was 530 nM; in that of `COc1cc(C=Cc2ccc3ccccc3n2)cc(Br)c1OCC(=O)N(C)C`, 1100 nM; in that of `O=C(Nc1ccc(-c2ccccc2)cc1)Nc1cccc(Cn2cnc(N3CCCNCC3)cc2=O)c1`, 1080 nM.
`CC(Cc1ccc(CNC(=O)c2ccc(CC(C)NCCc3cccc(Cl)c3)cc2)cc1)NCCc1cccc(Cl)c1` (configuration not stated) registered an IC50 of 700 nM.
`CC(=O)C1=NN(c2ccc(Cl)cc2)C(c2cccs2)N1c1ccccc1` (configuration not stated) returned an IC50 of 400 nM.
In the case of `Cc1ccc(/C=C/C(=O)N2CCC(CCN3CCC(c4c[nH]c5ccccc45)CC3)CC2)cc1C`, the IC50 came to 930 nM.
`O=C(/C=C/c1ccc(Cl)c(Cl)c1)N1CCC(CN2CCC(c3c[nH]c4ncccc34)CC2)CC1` yielded a concentration for half-maximal inhibition (IC50) of 1090 nM.
Take `COc1ccc(CCNCC(O)COc2nccc3c(S(=O)(=O)N4CCCNCC4)cccc23)cc1OC` (configuration not stated): the IC50 is 270 nM.
In the case of `CCCCC([C@@H](Cc1ccc2ccccc2c1)C(=O)N[C@H](C(=O)NC)C(C)(C)C)N(O)C=O` (some centres not stated) it was 140 nM; in that of `CC(=O)Nc1ccc(CN2CCC(N(C)c3cc(NC(=O)c4ccc(F)cc4)ccn3)CC2)cc1`, 1120 nM; in that of `Cc1cc(N[C@@H](Cc2ccccc2)C(=O)NCc2cccc(F)c2)nc(Nc2ccccc2)n1`, 930 nM.
Then `COc1ccc(C2CCN(CCN3CCC(NC(=O)c4cccc(-c5ccncc5)c4)CC3)CC2)c(OC)c1`, with 800 nM; and `CC(=NN=C(N)N)c1ccc2c(ccc3ccccc32)c1`, with 830 nM.
`CCC(C)(C)N[C@@H](C)[C@@H](O)c1ccc(C(F)(F)F)cc1` registered an IC50 of 750 nM.
In the case of `O=C(c1cccc(-c2ccc(-c3nc4ccc(F)cc4[nH]3)s2)c1)N1CCCCC1CN1CCC(O)C1` (configuration not stated) it was 720 nM; in that of `COc1cc2ncnc(Nc3ccc4nc(-c5ccccc5)[nH]c4c3)c2cc1OC`, 440 nM.
Then `COc1cc(NC(=O)/C=C/c2ccc(-c3ccccc3)cc2)ccc1OCCN(C(C)C)C(C)C`, with 840 nM.
On to `COc1ccc(N2CCN(CCCCNC(=O)c3ccc(/C=C/c4ccc(Cl)c(Cl)c4)cc3)CC2)c(OC)c1`, for which the IC50 worked out at 710 nM.
Then `CC(=O)c1c(Cc2ccccc2Cl)c[nH]c1C`, with 850 nM.
Then `CCc1ccc(C2CCN(CCCCNC(=O)c3ccc(NC(=O)c4ccc(Cl)cc4)cc3)CC2)c(OC)c1`, with 790 nM.
In the case of `O=C(Nc1ccccc1)OCCOc1ccc(CC2SC(=O)NC2=O)cc1` (configuration not stated), the IC50 is 370 nM.
`O=[N+]([O-])c1cccc(CNCC2CCN(Cc3ccc4ccccc4c3)CC2)c1` yielded an IC50 of 880 nM.
In the case of `COc1ccc(-c2ccc(CNCc3ccsc3)cc2)cc1S(=O)(=O)NCCN1CCCC1` it was 790 nM; in that of `NC(=NCCc1ccc(Cl)cc1)c1ccc(Cl)c(Cl)c1`, 1100 nM.
In the case of `COc1ccc(-c2ccc(S(=O)(=O)Nc3cc4c(cc3OC(C)C)CCNCC4)cc2)cc1` it was 970 nM; in that of `CCC(=O)Nc1nnc(Cc2ccc(OC)c(OC)c2)s1`, 910 nM; in that of `OC(CNc1ccnc(Nc2cccc(OCCCN3CCOCC3)c2)n1)c1ccccc1` (configuration not stated), 920 nM.
As for `Cn1cncc1CCN(Cc1ccc(-c2ccc(C(F)(F)F)cc2)cc1)C(=O)Cn1c(CCc2cccc(F)c2F)cc(=O)c2cccnc21`, the concentration for half-maximal inhibition (IC50) came to 850 nM.
In the case of `CCCCC(CCCC)CN1C(=O)C(c2ccccc2)(c2ccccc2)N=C1N` it was 180 nM; in that of `Cc1ccc(CNc2cc(C(F)(F)F)nc(-c3ccc(S(C)(=O)=O)cc3)n2)cc1`, 500 nM.
`Cn1cnc(-c2ccc3c(c2)CCN(CCC2CCC(NC(=O)/C=C/c4ccc(F)cc4)CC2)CC3)c1` (configuration not stated) yielded a half-maximal inhibitory concentration (IC50) of 900 nM.
In the case of `CO[C@H](C)[C@H](NC(=O)[C@H](CC(C)C)[C@H](CCC(F)(F)F)N(O)C=O)C(=O)Nc1nccs1` it was 110 nM.
Then `CCc1cc2c(=O)c(-c3nc(C)cs3)c([C@H](N)Cc3ccc(O)cc3)oc2cc1O`, with 900 nM; and `Cn1cncc1C(=O)Nc1cccc(-c2cccc(-c3nc4ccccc4[nH]3)c2)c1`, with 640 nM.
Then `Cc1cnc(NC(=O)c2cn(-c3ccccc3)nc2-c2cccs2)s1`, with 950 nM.
`O=C(NC1CCN(Cc2ccccc2)CC1)c1cc(-c2ccncc2)nc2ccc(Cl)cc12` had an IC50 of 920 nM.
As for `COc1cccc2cc(C(=O)N[C@@H](CC(C)C)C(=O)N[C@H](/C=N/NC(=O)OC(C)(C)C)CC(C)C)oc12`, the IC50 is 900 nM.
As to `Cn1cnc(CCNC(=O)c2cccc(-c3csc(-c4nc5ccccc5[nH]4)c3)c2)c1`, the IC50 came out at 600 nM.
Then `CC(CN(C)C)Oc1ccc2[nH]c(-c3cccc(OCc4ccccc4)c3)nc2c1C#N` (configuration not stated), with 410 nM; and `CC(C)OC(=O)c1ccccc1S(N)(=O)=O`, with 670 nM; and `CCCC(C)Nc1nc(C)cc(N[C@@H](Cc2ccccc2)C(=O)Nc2ccc(OC)cc2)n1` (some centres not stated), with 1120 nM.
The molecule `c1ccc2c(Nc3ccc(Oc4ccc(Nc5c6ccccc6nc6ccccc56)cc4)cc3)c3ccccc3nc2c1` came in with an IC50 of 520 nM.
The molecule `COc1ccc(Nc2nc(C)cc(NCc3ccc(-c4c(C)noc4C)cc3)n2)cc1` yielded an IC50 of 840 nM.
Then `CCc1c(C)nc2nc(Cc3cccc(F)c3)nn2c1N1CCN(c2ccccn2)CC1`, with 750 nM.
Consider `CCCN1CCN(CCNC(=O)c2cccc(Nc3nccc(Nc4ccc(Oc5ccccc5)cc4)n3)c2)CC1`, for which the IC50 came to 240 nM.
Then `COc1ccc(CC(C)NCC(O)c2cccc(C(F)(F)F)c2)cc1` (configuration not stated), with 1580 nM.
`O=C1COC2(CN1CC1CCN(Cc3ccc(O)c(Cl)c3)C1)c1ccccc1-c1ccccc12` (configuration not stated) displayed a half-maximal inhibitory concentration (IC50) of 1060 nM.
In the case of `NC(=O)C1CCN(Cc2cccc(-c3cccc(-c4nc5ccc(C(F)(F)F)cc5[nH]4)c3)c2)CC1` it was 640 nM.

The term IC50 denotes the concentration at which inhibition is half-maximal.
